Assay results taken from ChEMBL document CHEMBL3272170, “Potential antitumor agents. 24. Dicationic analogues of the 4'-(9-acridinylamino)alkanesulfonanilides” (J Med Chem, 1977).

Tests used:
[1] = physchem
Description: Ionization constant, pKa of the compound by UV spectrophotometric analysis

[2] = in vivo; conditions: C3H X DBA2 F1, mouse, ip
Description: Toxicity in ip dosed C3H X DBA2 F1 mouse allografted with mouse L1210 cells through ip

[3] = in vivo; conditions: C3H X DBA2 F1, mouse, ip; remark: listed apart in the source
Description: Toxicity in ip dosed C3H X DBA2 F1 mouse allografted with mouse L1210 cells through sc

SMILES	pKa [1]	MTD [2] [mg/kg/day]	MTD [3] [mg/kg/day]
N=C(N)NCCCS(=O)(=O)Nc1ccc(Nc2c3ccccc3nc3cc([N+](=O)[O-])ccc23)cc1	5.34		
C[n+]1c2ccccc2c(Nc2ccc(NS(C)(=O)=O)cc2)c2ccc(N)cc21	10.1		
Cl.NCCS(=O)(=O)Nc1ccc(Nc2c3ccccc3nc3ccccc23)cc1	6.62	35	
NCCCS(=O)(=O)Nc1ccc(Nc2c3ccccc3nc3ccccc23)cc1	6.89		
NCCCCS(=O)(=O)Nc1ccc(Nc2c3ccccc3nc3ccccc23)cc1	6.91		
Cl.NCCCCCS(=O)(=O)Nc1ccc(Nc2c3ccccc3nc3ccccc23)cc1	6.92	60	
Cl.NCCCCCCS(=O)(=O)Nc1ccc(Nc2c3ccccc3nc3ccccc23)cc1	6.92	65	
NCCS(=O)(=O)Nc1ccc(Nc2c3ccccc3nc3cc([N+](=O)[O-])ccc23)cc1	5.25		
Cl.NCCCS(=O)(=O)Nc1ccc(Nc2c3ccccc3nc3cc([N+](=O)[O-])ccc23)cc1	5.33		20
NCCCCS(=O)(=O)Nc1ccc(Nc2c3ccccc3nc3cc([N+](=O)[O-])ccc23)cc1	5.34		
Cl.NCCCCCS(=O)(=O)Nc1ccc(Nc2c3ccccc3nc3cc([N+](=O)[O-])ccc23)cc1	5.36		44
Cl.NCCCCCCS(=O)(=O)Nc1ccc(Nc2c3ccccc3nc3cc([N+](=O)[O-])ccc23)cc1	5.34		2
NCCCCCCCS(=O)(=O)Nc1ccc(Nc2c3ccccc3nc3cc([N+](=O)[O-])ccc23)cc1	5.36		
Cl.NCCCCCCCCS(=O)(=O)Nc1ccc(Nc2c3ccccc3nc3cc([N+](=O)[O-])ccc23)cc1	5.35	30	
COc1cc(NS(=O)(=O)CCCCN)ccc1Nc1c2ccccc2nc2cc([N+](=O)[O-])ccc12	5.58		
CN(C)CCCCS(=O)(=O)Nc1ccc(Nc2c3ccccc3nc3cc([N+](=O)[O-])ccc23)cc1.Cl	5.36		10
CC(=O)Nc1ccc2c(Nc3ccc(NS(=O)(=O)CCCCN)cc3)c3ccccc3nc2c1	7.16		
C[n+]1c2ccccc2c(Nc2ccc(NS(=O)(=O)CCCCN)cc2)c2ccccc21	6.72		
Cc1cccc2c(Nc3ccc(NS(=O)(=O)CCCCN)cc3)c3ccc([N+](=O)[O-])cc3nc12.Cl	5.44	200	

SMILES	pKa [1]	MTD [2] [mg/kg/day]	MTD [3] [mg/kg/day]
Cc1ccc2c(Nc3ccc(NS(=O)(=O)CCCCN)cc3)c3ccc([N+](=O)[O-])cc3nc2c1C	5.52		
NCC(=O)NCCS(=O)(=O)Nc1ccc(Nc2c3ccccc3nc3ccccc23)cc1	6.9		
NCCC(=O)NCCS(=O)(=O)Nc1ccc(Nc2c3ccccc3nc3ccccc23)cc1	6.91		
C[n+]1c2ccccc2c(Nc2ccc(NS(=O)(=O)CCNC(=O)CCN)cc2)c2ccccc21	6.7		
NCC(=O)NCCS(=O)(=O)Nc1ccc(Nc2c3ccccc3nc3cc([N+](=O)[O-])ccc23)cc1	5.34		
NCCC(=O)NCCS(=O)(=O)Nc1ccc(Nc2c3ccccc3nc3cc([N+](=O)[O-])ccc23)cc1	5.35		
N=C(N)NCCS(=O)(=O)Nc1ccc(Nc2c3ccccc3nc3cc([N+](=O)[O-])ccc23)cc1	5.26		
N=C(N)NCCCCS(=O)(=O)Nc1ccc(Nc2c3ccccc3nc3cc([N+](=O)[O-])ccc23)cc1	5.36		
N=C(N)NCCCCCS(=O)(=O)Nc1ccc(Nc2c3ccccc3nc3cc([N+](=O)[O-])ccc23)cc1	5.36		
N=C(N)NCCCCCCS(=O)(=O)Nc1ccc(Nc2c3ccccc3nc3cc([N+](=O)[O-])ccc23)cc1	5.35		
Cl.N=C(N)NCCCCS(=O)(=O)Nc1ccc(Nc2c3ccccc3nc3ccccc23)cc1	6.91	75	
Cl.N=C(N)NCCCCS(=O)(=O)Nc1ccc(Nc2c3ccccc3nc3cc(Cl)ccc23)cc1	6.33	150	
C[n+]1c2ccccc2c(Nc2ccc(NS(=O)(=O)CCCCNC(=N)N)cc2)c2ccccc21.[Br-]	6.69	150	
Cc1cccc2c(Nc3ccc(NS(=O)(=O)CCCCNC(=N)N)cc3)c3cccc(C)c3nc12	6.41		
CC(=O)Nc1ccc2c(Nc3ccc(NS(=O)(=O)CCNC(=N)N)cc3)c3ccc([N+](=O)[O-])cc3nc2c1	5.55		
CC(=O)Nc1ccc2c(Nc3ccc(NS(=O)(=O)CCCNC(=N)N)cc3)c3ccc([N+](=O)[O-])cc3nc2c1	5.58		
N=C(N)NCCCS(=O)(=O)Nc1ccc(Nc2c3ccc([N+](=O)[O-])cc3nc3cc([N+](=O)[O-])ccc23)cc1	3.68		
CS(=O)(=O)Nc1ccc(Nc2c3ccccc3nc3ccccc23)cc1	7.19		
Nc1c2ccccc2nc2ccccc12 [AMINACRINE]	9.6		
